Laboratory results from patent US9453008B2, “Antithrombotic and antiatherosclerotic agent and method for producing same (variants)” (PROTON OOO, priority 2011, dated 2016).
Entries after “also recorded” stand apart in the source; their conditions may differ.

Columns and labels:
[1] = tested on: ADP-induced platelet aggregation; experiment: ADP-induced platelet aggregation of rabbit blood plasma, in vitro; assay type: cell-based; settings: concentrations of 10^−3-10^−7 M; listed as compound of formula I
Description: (§1) Antiplatelet activity was assessed by the effect of the compound on platelet aggregation of rabbit blood plasma, induced by ADP (adenosine diphosphate) and arachidonic acid. Platelet aggregation was assessed by the change of optical density of plasma. Studies were performed using both intravenous administration, in comparison with sodium nitroprusside, and oral administration, in comparison with acetylsalicylic acid. Compound I was used in concentrations of 10^−3-10^−7 M (parenteral administration) and in 4-8 and 12 mg/kg doses (oral administration).

[2] = tested on: ADP-induced platelet aggregation; experiment: ADP-induced platelet aggregation following intravenous administration in rabbits; assay type: in vivo, rabbit
Description: FIG. 1 is a graph showing the effect of the compound I and sodium nitroprusside on ADP-induced platelet aggregation following intravenous administration in rabbits (% compared to control).
as §1
In order to make a final conclusion on the ability of the studied compound to inhibit platelet aggregation experiments were performed in conditions of living organism using intravenous and oral administration.
Compound I and sodium nitroprusside (a reference drug) have both inhibited the process of platelet aggregation. However, there were considerable quantitative and temporal differences in their effects. […] This was the only time point where we managed to observe its activity. After 1 hour the effect disappeared.

[3] = tested on: ADP-induced platelet aggregation; experiment: ADP-induced platelet aggregation following peroral administration in rabbits; assay type: in vivo, rabbit
Description: FIG. 2 is a graph showing the changes in platelet functional activity following peroral administration of the compound I in a model of ADP-induced aggregation in rabbits (% compared to control).
as §1

[4] = tested on: human neutrophils; experiment: FMLP-induced generation of superoxide anion radical by human neutrophils; assay type: cell-based; settings: neutrophils weakened by pathological processes
Source text: We have also studied the effect of the compound on formylmethionyl-leucyl-phenylalanine (FMLP)—induced generation of superoxide anion radical (O2^−.) by human neutrophils, weakened by pathological processes (histiocytosis, stage 2 hypertension). Such experimentation was chosen due to the fact, that, in order to perform a complete phagocytosis with complete destruction of pathogenic microorganisms, phagocytes, including neutrophils, generate the so-called reactive oxygen species (ROS), including oxygen radicals and compounds easily converting into such radicals. Superoxide anion radical (O2^−.) hydroxyl radical (OH.) and lipid hydroxyperoxides (ROO*) also belong to AOF. All these compounds have one unpaired electron on outer molecular orbital, giving them high reactivity, which causes their interaction with cell molecules: proteins, RNA, DNA, etc, accompanied by the loss of their biological activity.

[5] = tested on: rat hemostasis; experiment: Model of parenchymal hemorrhage (bleeding time) after oral administration; assay type: in vivo
Description: The model of parenchymal hemorrhage characterizes hemostasis through the stimulation of coagulation cascade. Usually, it is rather difficult to obtain considerable change of bleeding time in these models with resorptive-acting compounds. Direct-action anticoagulants (heparin, heparinoids) prolong bleeding time in these models only in high doses, while the effect is detected at different time (up to 3 hours after the administration). Indirect-action […] drugs (oxycoumarines, indandiones, etc.) usually begin to increase bleeding after a certain delay period (12-48 hours after the administration), which is easily explainable by the modern understanding of their mechanism of action: they stop the biosynthesis of blood clotting plasma factors II, VII, IX, X, while the duration of delay period is determined by the amount of these factors, produced in the liver before the administration of vitamin K reductase inhibitors (oxycoumarines, indandiones).
The duration of parenchymal hemorrhage in the control group was 88.9±1.2 s. Test groups of animals used in the experiments 60 minutes after oral administration of the compound of formula I. After the administration of 8 mg/kg dose the duration of parenchymal hemorrhage in test group increased by 71% compared to original condition, it further increased to 220.6±3.4 s after another hour.

[6] = Acute toxicity (LD50); assay type: in vivo; settings: mouse, in vivo, other: internal administration
Source text: (§2) Acute toxicity of the compound in mice in internal administration is 8.9±0.75 g/kg, cumulation after 28 days administration is weak (lethality less than 50%).

[7] = tested on: mice; experiment: Acute toxicity (LD50); assay type: in vivo; settings: mice, internal administration
Source text: as §2

[8] = Cumulation after 28 days administration; assay type: in vivo
Source text: as §2

[9] = tested on: spontaneously hypertensive (SHT) rats; experiment: Blood pressure in narcotized SHT rats, intravenous administration; assay type: in vivo, rat
Description: (§3) The experiments were performed on spontaneously hypertensive (SHT) and normotensive (NT) narcotized male rats using intravenous administration of the tested compounds. The ability of the compound to reduce arterial blood pressure (BP) in SHT rats and prevent spasmogenic reactions to noradrenalin (NA) and angiotensin I (AI).
The compound of formula I was used as a solution in 3% aqueous DMSO. Sodium nitroprusside and nitroglycerin were used as reference drugs.
The administration of the compound of formula I in dose range 0.01-0.1-0.5 and 1.0 mg/kg has exerted dose-dependent antihypertensive effect ranging in time from 30-40 s to 60 min and more.

[10] = tested on: pressor effect of noradrenaline; experiment: Pressor effect of noradrenaline after intravenous administration in normotensive narcotized rats; assay type: in vivo, rat
Description: as §3
(§4) The effects of the compound of formula I on the pressor effects of noradrenaline (NA, 10-15 μg/kg), mesatonum (M, 5 μg/kg) and angiotensin (AI, 5 μg/kg) were studied on normotensive narcotized […]. Antihypertensive action of the compound of formula I was assessed relative to the pressor effects of the control administration of the aforementioned compounds.

[11] = tested on: pressor effect of angiotensin I; experiment: Pressor effect of angiotensin I after intravenous administration in normotensive narcotized rats; assay type: in vivo, rat
Description: as §3, §4

CN1CC(CO)O/C1=C(C#N)/C=C1/Nc2ccccc2C1=O (centres unmarked) [Compound I, 2-[2-Cyano-2-[5-(hydroxymethyl)-3-methyl-1,3-oxazolidin-2-ylidene]ethylidene]indolin-3-one]
In vitro antiplatelet activity (inhibition of ADP-induced platelet aggregation) [1]: significantly inhibits; also recorded: as good as that of acetylsalicylic acid | Inhibition of induced functional activity of platelets compared with sodium nitroprusside ([2]; intravenous administration to rabbits): as potent as that of sodium nitroprusside, but persists for a longer time | Time at which inhibition of platelet aggregation stopped/disappeared ([2]; intravenous, rabbits): 3 h | Time of maximal potency of inhibition of platelet aggregation ([2]; intravenous, rabbits): 60 min | Duration of effect on ADP-induced aggregation ([3]; enteral administration): about 3 hours | Inhibition of ADP-induced aggregation (maximal potency) ([3]; peroral, rabbits, after 2 hours): 40% | Inhibition of ADP-induced aggregation ([3]; peroral, rabbits, after the first hour): 30% | Inhibition of ADP-induced aggregation (as a tendency) ([3]; peroral, rabbits, persisting for all 4 hours of observation): 15-25% | Effect on reduced ability of human neutrophils to generate reactive oxygen species [4]: briefly enhances | Increase of duration of parenchymal hemorrhage compared to original condition ([5]; 8 mg/kg oral, 60 minutes after administration): 71% | Duration of parenchymal hemorrhage ([5]; 8 mg/kg oral, after another hour (control 88.9±1.2 s)): 220.6 ± 3.4 s | Duration of parenchymal hemorrhage vs control ([5]; 8 mg/kg oral, end of experiment (240 min)): did not differ from the control group | Duration of bleeding ([5]; 16 mg/kg oral, first 60 min of the observation): increased twofold | Effect on rat hemostasis in the model of parenchymal hemorrhage ([5]; rat, in vivo): statistically significantly slows down rat hemostasis | LD50 [6]: 8900 mg/kg | Acute toxicity [7]: 8.9 ± 0.75 g/kg | Lethality [8]: less than 50% | Duration of BP reduction ([9]; 0.01 mg/kg dose intravenous): 30 s | Reduction of BP ([9]; 0.01 mg/kg dose intravenous): 10-12 mmHg | Reduction of BP, mmHg (Δ) ([9]; 0.01 mg/kg intravenously, 10-20 s): −12 ± 5 mmHg | Reduction of BP, mmHg (Δ) ([9]; 0.1 mg/kg intravenously, 10-20 s): −15 ± 5 mmHg | Reduction of BP, mmHg (Δ) ([9]; 0.1 mg/kg intravenously, 5 min): −20 ± 7 mmHg | Reduction of BP, mmHg (Δ) ([9]; 0.5 mg/kg intravenously, 10-20 s): −10 ± 3 mmHg | Reduction of BP, mmHg (Δ) ([9]; 0.5 mg/kg intravenously, 5 min): −20 ± 8 mmHg | Reduction of BP, mmHg (Δ) ([9]; 0.5 mg/kg intravenously, 30 min): −25 ± 8 mmHg | Reduction of BP, mmHg (Δ) ([9]; 0.5 mg/kg intravenously, 60 min): −30 ± 7 mmHg | Duration of BP reduction ([9]; 1.0 mg/kg dose intravenous): 3600 s | Reduction of BP (maximal effect) ([9]; 1.0 mg/kg dose intravenous): 25-30 mmHg | Reduction of BP, mmHg (Δ) ([9]; 1.0 mg/kg intravenously, 10-20 s): −12 ± 3 mmHg | Reduction of BP, mmHg (Δ) ([9]; 1.0 mg/kg intravenously, 5 min): −25 ± 7 mmHg | Reduction of BP, mmHg (Δ) ([9]; 1.0 mg/kg intravenously, 30 min): −30 ± 7 mmHg | Reduction of BP, mmHg (Δ) ([9]; 1.0 mg/kg intravenously, 60 min): −30 ± 8 mmHg | Reduction of BP, mmHg (Δ) ([9]; 1.0 mg/kg intravenously, 120 min): −30 ± 8 mmHg | Inhibition of pressor reaction (%) induced by Noradrenaline ([10]; 0.01 mg/kg intravenous): 25% | Inhibition of pressor reaction (%) induced by Noradrenaline ([10]; 0.05 mg/kg intravenous): 35% | Inhibition of pressor reaction (%) induced by Noradrenaline ([10]; 0.1 mg/kg intravenous): 50% | Inhibition of pressor reaction (%) induced by Noradrenaline ([10]; 0.5 mg/kg intravenous): 60% | Inhibition of pressor reaction (%) induced by Noradrenaline ([10]; 1.0 mg/kg intravenous): 55-60% | Inhibition of pressor reaction (%) induced by Angiotensin I ([11]; 0.01 mg/kg intravenous, 0 - absence of effect): 0% | Inhibition of pressor reaction (%) induced by Angiotensin I ([11]; 0.05 mg/kg intravenous): 10% | Inhibition of pressor reaction (%) induced by Angiotensin I ([11]; 0.1 mg/kg intravenous, listed as Compound of formula I): 25-30% | Inhibition of pressor reaction (%) induced by Angiotensin I ([11]; 0.1 mg/kg intravenous, listed as compound of formula I): 25% | Inhibition of pressor reaction (%) induced by Angiotensin I ([11]; 0.5 mg/kg intravenous, 0 - absence of effect): 30% | Inhibition of pressor reaction (%) induced by Angiotensin I ([11]; 1.0 mg/kg intravenous): 30-40%
